One assay concerns cervical vagus nerve. Nature of the assay: Whole nerve electrophysiology of the cervical vagus during duodenal sugar perfusion. It counts as in vivo, mice. The settings on record: wild-type mice; sucrose 300 mM, D-glucose 150 mM, fructose 150 mM, galactose 150 mM, maltodextrin 8%, α-MGP 150 mM, sucralose 15 mM, acesulfame K 15 mM, saccharin 15 mM. Here is the method: FIG. 1. […] Model: sugars are perfused into the duodenal lumen while nerve activity is recorded from the cervical vagus of anesthetized wild-type mice.
The proximal duodenum was perfused with sugars, thus bypassing any gustatory or gastric activation. Sugars were tested based on the following properties: both caloric content and sweet taste (sucrose [300 mM], D-glucose [150 mM], […], galactose [150 mM]), calorie-only (maltodextrin [8%], alpha-methylglucopyranoside (α-MGP) [150 mM]), or taste-only (sucralose [15 mM], acesulfame-K [15 mM], saccharin [15 mM]) (FIG. 1, FIG. 2, FIG. 3, FIG. 4).

Another assay concerns vagal nodose neurons. Nature of the assay: Cultured dissociated vagal neurons stimulated with sugars. It is filed as cell-based. The settings on record: D-glucose 20 mM; for response of vagal nodose neurons cultured alone: sucralose 2 mM, maltodextrin 1%, n = 59 neurons. The protocol: (§1) Dissociated vagal neurons were cultured to test whether the neurons are able to sense the different sugars. The neurons were stimulated with three consecutive sugars (D-glucose [20 mM], sucralose [2 mM], and maltodextrin [1%]) followed by KCI [50 mM] as an activity control. […] To determine how individual neuropod cells respond to taste and calorie properties, cultured Cck_tdTomato+ cells were stimulated with the same sugars, counterbalancing for order effect, and calcium activity was recorded using KCI [50 mM] as a final activity control. Of the 49 cells imaged, 18.4% responded to all types of sugar, 36.7% responded to only D-glucose, 20.4% to only maltodextrin, and 12.2% to only sucralose (n = 49 cells, n = 3 mice; FIG. 13). […] Cck_tdTomato+ cells were co-cultured with nodose neurons to determine whether neuropod cells were transducing different sugar stimuli onto the same vagal neurons. Patch-clamp electrophysiology, in voltage-clamp, was used to record neuron activity in response to neuropod cell exposure to D-glucose [20 mM] and sucralose [2 mM] in alternating order (FIG. 14). From the 18 pairs recorded, neuropod cells transduced the sugar stimuli and elicited excitatory post-synaptic currents in connected neurons in response to both stimuli in 6 pairs, to only D-glucose in 8 pairs, and to sucralose alone in 4 pairs (FIG. 14). Thus, neuropod cells are heterogenous in their response and transduction of caloric and non-caloric stimuli to vagal neurons.

The subject of the next assay is Cck_tdTomato+ cells. Nature of the assay: Calcium activity of cultured Cck_tdTomato+ cells stimulated with sugars. The settings on record: D-glucose 20 mM, sucralose 2 mM, maltodextrin 1%; 49 cells. It is filed as cell-based, mice. The protocol:
as §1, with “Thus, neuropod cells are heterogenous in their response and transduction of caloric and non-caloric stimuli to vagal neurons.” left out

Assay [1] deals with nodose neurons co-cultured with Cck_tdTomato+ cells. Nature of the assay: Patch-clamp electrophysiology of nodose neurons co-cultured with Cck_tdTomato+ cells. It counts as cell-based. The settings on record: D-glucose 20 mM, sucralose 2 mM; for peak excitatory post-synaptic currents, D-glucose vs sucralose: n = 18 pairs; for co-culture pairs responding to this stimulus only / co-culture pairs with excitatory post-synaptic currents in response to only this stimulus: of 18 pairs. Here is the method:
as §1

In assay [2] the test system is enteroendocrine cells and nodose ganglia neurons. The settings on record: 10 mM glucose; cited from earlier work.
The test system of another assay is duodenal Cck cells. Nature of the assay: Vagal recording with intraluminal 532 nm laser silencing of duodenal Cck (neuropod) cells. It is filed as in vivo. The settings on record: Cck_Halo mice; sucrose 300 mM, α-mgp 150 mM, sucralose 15 mM. Here is the method:
FIG. 9. Model: intraluminal 532 nm laser activates NpH3 chloride channels to silence duodenal Cck cells in CckCRE_NpH3 mice.
Using whole nerve electrophysiology of the cervical vagus nerve, it was confirmed that vagal activity increases in the presence of luminal sugars. Kaelberer et al., Science 361 (6408) (2018). The proximal duodenum was perfused with sugars, thus bypassing any gustatory or gastric activation. Sugars were tested based on the following properties: both caloric content and sweet taste (sucrose [300 mM], D-glucose [150 mM], fructose [150 mM], galactose [150 mM]), calorie-only (maltodextrin [8%], alpha-methylglucopyranoside (α-MGP) [150 mM]), or taste-only (sucralose [15 mM], acesulfame-K [15 mM], saccharin [15 mM]) (FIG. 1, FIG. 2, FIG. 3, FIG. 4). […] Intraluminal application of the 532 nm laser eliminated the vagal response to sucrose [300 mM], α-mgp [150 mM], and sucralose [15 mM] (n ≥ 5, p < 0.001) (FIG. 10 and FIG. 11; laser activation and wild-type controls). Thus, neuropod cells are required to sense both the calorie and taste properties of sugar and communicate these signals onto vagal neurons.
Cck neuropod cells in the duodenum express receptors for fatty acids (FIG. 69), analyzed by bulk sequencing Cck-positive and Cck-negative epithelial cells in the duodenum of CckGFP mice. Thus, CCK cells in the duodenum may signal the presence of fatty acids to the vagus nerve. To test this, the silencing optogenetic channel was expressed in Cck cells of mice. […] In the duodenum, there is overlap in cells expressing CCK and the vesicular glutamate transporter 1 (Vglut1), required for release of the neurotransmitter glutamate. To test whether glutamate is required as a signaling molecule for fat transduction to the vagus nerve, a cocktail of glutamate receptor inhibitors was perfused through the duodenum of wild type mice. Blockade of ionotropic and metabotropic glutamate receptors blocked vagal firing elicited by glutamate (FIG. 71). […] In an initial baseline test, mice freely explore an arena for 20 minutes, during which their position in the arena measured. […]

Assay [3] has as its system murine small intestinal organoids. Nature of the assay: Glutamate release assay on murine small intestinal organoids. It is filed as cell-based, mouse. The settings on record: sucrose 300 mM, α-MGP 150 mM, sucralose 15 mM; PBS control 2.632 ± 1.280. The protocol:
Slc5a1+ Cck-GFP cells express transcripts for the vesicular glutamate transporters Slc17a6, Slc17a7, Slc17a8 and the excitatory neurotransmitter transporters Slc1a1, Slc1a2, and Slc1a3 (FIG. 4). […] A glutamate release assay was performed on murine small intestinal organoids to determine if glutamate release was stimuli specific (FIG. 24-left). α-MGP was used for a caloric stimulus with no sweet taste, because it is not metabolized once it enters the cell and thus allowed for isolation of cell entry. After nutrient stimulation, the glutamate concentration in the supernatant was 2.632 ± 1.280 ng/µL for PBS control, 13.460 ± 1.724 ng/µL for sucrose [300 mM], 18.183 ± 7.904 ng/µL for α-MGP [150 mM], and 6.053 ± 1.169 ng/µL for sucralose [15 mM].

This is an account of results in patent US20230077514A1, “METHODS FOR MODULATING CALORIE CONSUMPTION” (Duke University, priority 2020, published 2023).

As for `O=C[C@H](O)[C@@H](O)[C@H](O)[C@H](O)CO` [D-glucose], in the assay with cervical vagus nerve, the “vagal response (firing) to intraduodenal sugar vs baseline” value was “responds significantly”. The “response of vagal nodose neurons cultured alone” value with vagal nodose neurons is “do not respond”. Besides, in the assay on vagal nodose neurons (59 neurons), the “neurons with a (small) response” value is 2 of 59. Also, the “cells responding to only this sugar” value with Cck_tdTomato+ cells is reported as 36.7%. In addition, in assay [1], the “peak excitatory post-synaptic currents, D-glucose vs sucralose” value is reported as “not significantly different”; the “co-culture pairs responding to this stimulus only” value was found to be 44.4%; the “co-culture pairs with excitatory post-synaptic currents in response to only this stimulus” value stood at 8 pairs. Moreover, in assay [2], the “activation of a nodose neuron by itself” value was “did not activate”; the “response of connected neuron to stimulus applied to the enteroendocrine cell” value was “induced excitatory post-synaptic potentials and action potential spikes”.
With `OC[C@H]1O[C@H](O[C@]2(CCl)O[C@H](CCl)[C@@H](O)[C@@H]2O)[C@H](O)[C@@H](O)[C@H]1Cl` [sucralose], the “vagal response (firing) to intraduodenal sugar vs baseline” value in the assay on cervical vagus nerve was “responds significantly”. Besides, the “vagal response with Cck cells silenced by 532 nm laser” value in the assay on duodenal Cck cells is “eliminated”. In addition, the “response of vagal nodose neurons cultured alone” value in the assay with vagal nodose neurons is “do not respond”. Also, the “cells responding to only this sugar” value in the assay on Cck_tdTomato+ cells was determined as 12.2%. Besides, in assay [1], the “peak excitatory post-synaptic currents, D-glucose vs sucralose” value is on record as “not significantly different”; the “co-culture pairs responding to this stimulus only” value came out at 22.2%; the “co-culture pairs with excitatory post-synaptic currents in response to only this stimulus” value is 4 pairs. In addition, in assay [3], the “glutamate concentration in the supernatant after stimulation” value came out at 6.053 ± 1.169 ng/µL.
